Calls of active or inactive are those of the source. The calls are words filed in the database; no cut-off is given here.
Legend:
[1] = target: T1, Centromere-associated protein E (Homo sapiens, UniProt Q02224); assay: Inhibition of CENP-E in human HeLa cells assessed as misaligned chromosome at 1 uM incubated for 2 hrs by DAPI staining based assay; type: cell-based
HeLa = assay: Antiproliferative activity against human HeLa cells assessed as inhibition of cell proliferation; type: functional, cell-based
[2] = target: T1, Centromere-associated protein E; assay: Inhibition of CENP-E (unknown origin) ATPase activity in presence 365 nm of light illumination
[3] = target: T1, Centromere-associated protein E; assay: Inhibition of CENP-E (unknown origin) ATPase activity in absence of light illumination

T1 sequence (Q02224 whole entry): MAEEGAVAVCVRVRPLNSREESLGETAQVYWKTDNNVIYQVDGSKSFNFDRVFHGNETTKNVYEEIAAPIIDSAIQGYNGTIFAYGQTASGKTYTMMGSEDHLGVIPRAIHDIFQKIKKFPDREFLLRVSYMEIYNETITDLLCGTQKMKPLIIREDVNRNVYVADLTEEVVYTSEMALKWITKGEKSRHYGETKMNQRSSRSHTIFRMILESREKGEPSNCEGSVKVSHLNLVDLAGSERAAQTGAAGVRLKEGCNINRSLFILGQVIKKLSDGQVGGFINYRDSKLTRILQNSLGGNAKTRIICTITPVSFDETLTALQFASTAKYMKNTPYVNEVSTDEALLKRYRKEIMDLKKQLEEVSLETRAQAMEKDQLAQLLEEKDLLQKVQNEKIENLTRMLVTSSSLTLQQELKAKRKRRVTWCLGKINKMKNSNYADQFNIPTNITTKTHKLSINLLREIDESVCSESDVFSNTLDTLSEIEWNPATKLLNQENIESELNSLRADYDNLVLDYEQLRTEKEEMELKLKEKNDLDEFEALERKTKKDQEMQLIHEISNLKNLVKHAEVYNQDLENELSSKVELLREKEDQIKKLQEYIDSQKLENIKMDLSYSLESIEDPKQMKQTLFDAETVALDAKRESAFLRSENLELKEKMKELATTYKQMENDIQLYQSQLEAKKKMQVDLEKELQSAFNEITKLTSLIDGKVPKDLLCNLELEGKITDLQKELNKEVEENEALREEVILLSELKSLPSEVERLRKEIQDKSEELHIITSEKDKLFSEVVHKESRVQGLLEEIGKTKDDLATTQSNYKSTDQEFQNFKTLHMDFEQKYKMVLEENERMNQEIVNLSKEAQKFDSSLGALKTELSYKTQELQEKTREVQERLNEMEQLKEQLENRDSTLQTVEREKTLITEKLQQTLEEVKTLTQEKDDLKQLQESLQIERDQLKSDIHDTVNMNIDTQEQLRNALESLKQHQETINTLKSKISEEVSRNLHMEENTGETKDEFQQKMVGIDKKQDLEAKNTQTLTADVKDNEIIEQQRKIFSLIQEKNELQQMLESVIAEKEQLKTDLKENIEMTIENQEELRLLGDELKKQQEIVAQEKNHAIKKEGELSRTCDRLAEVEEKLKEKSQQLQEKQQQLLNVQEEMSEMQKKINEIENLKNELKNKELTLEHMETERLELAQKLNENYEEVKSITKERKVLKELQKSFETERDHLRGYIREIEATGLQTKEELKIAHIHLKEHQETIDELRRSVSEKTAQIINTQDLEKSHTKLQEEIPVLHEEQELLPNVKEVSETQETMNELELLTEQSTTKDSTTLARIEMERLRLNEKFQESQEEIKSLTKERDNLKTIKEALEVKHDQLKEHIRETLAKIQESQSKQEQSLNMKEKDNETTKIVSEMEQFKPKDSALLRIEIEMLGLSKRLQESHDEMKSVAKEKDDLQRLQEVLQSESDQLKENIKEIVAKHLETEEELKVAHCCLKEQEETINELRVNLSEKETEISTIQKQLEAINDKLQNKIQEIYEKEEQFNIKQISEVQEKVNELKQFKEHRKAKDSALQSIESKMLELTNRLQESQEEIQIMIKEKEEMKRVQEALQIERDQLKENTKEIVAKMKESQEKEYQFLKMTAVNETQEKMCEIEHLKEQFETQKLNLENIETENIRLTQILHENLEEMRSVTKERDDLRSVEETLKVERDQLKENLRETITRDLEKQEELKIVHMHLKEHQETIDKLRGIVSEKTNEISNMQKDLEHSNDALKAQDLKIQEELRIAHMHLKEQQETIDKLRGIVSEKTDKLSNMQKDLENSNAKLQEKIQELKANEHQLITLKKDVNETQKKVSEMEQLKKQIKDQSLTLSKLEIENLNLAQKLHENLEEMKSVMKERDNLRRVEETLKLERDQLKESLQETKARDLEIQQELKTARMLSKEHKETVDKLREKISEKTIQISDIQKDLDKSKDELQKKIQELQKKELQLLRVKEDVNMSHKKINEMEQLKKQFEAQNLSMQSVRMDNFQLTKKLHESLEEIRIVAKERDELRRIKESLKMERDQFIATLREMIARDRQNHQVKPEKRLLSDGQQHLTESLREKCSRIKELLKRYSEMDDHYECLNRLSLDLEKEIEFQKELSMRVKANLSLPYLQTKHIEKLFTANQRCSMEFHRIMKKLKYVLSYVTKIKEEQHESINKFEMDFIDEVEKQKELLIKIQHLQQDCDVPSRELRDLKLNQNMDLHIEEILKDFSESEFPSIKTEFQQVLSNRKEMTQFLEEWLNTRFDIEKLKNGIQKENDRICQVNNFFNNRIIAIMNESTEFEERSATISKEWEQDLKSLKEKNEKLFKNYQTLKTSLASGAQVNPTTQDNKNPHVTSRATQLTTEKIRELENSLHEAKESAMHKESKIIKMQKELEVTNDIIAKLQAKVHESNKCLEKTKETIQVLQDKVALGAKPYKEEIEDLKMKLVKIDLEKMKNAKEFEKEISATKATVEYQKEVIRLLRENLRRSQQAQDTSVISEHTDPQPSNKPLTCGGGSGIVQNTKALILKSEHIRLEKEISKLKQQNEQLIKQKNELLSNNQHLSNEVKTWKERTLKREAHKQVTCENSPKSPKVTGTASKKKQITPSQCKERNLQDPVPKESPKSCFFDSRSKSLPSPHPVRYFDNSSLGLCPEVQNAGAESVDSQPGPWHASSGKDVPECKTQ

Row | SMILES | inhibition [1] | IC50 (HeLa) [µM] | IC50 [2] [nM] | IC50 [3] [nM]
1 | CNC(=O)[C@H](Cc1ccc(NN=C(C(C)=O)C(C)=O)cc1)NC(=O)c1ccc(OC(C)C)c(Cl)c1 | inactive |  |  | 
2 | CNC(=O)[C@H](Cc1ccc(/N=N/c2c(C)nn(-c3cccc4ccccc34)c2C)cc1)NC(=O)c1ccc(OC(C)C)c(Cl)c1 |  | 10 | > 501 | < 501
3 | CNC(=O)[C@H](Cc1ccc(/N=N/c2c(C)n[nH]c2C)cc1)NC(=O)c1ccc(OC(C)C)c(Cl)c1 |  | > 10 | > 501 | > 501
4 | CNC(=O)[C@H](Cc1ccc(/N=N/c2c(C)nn(C3CCCCC3)c2C)cc1)NC(=O)c1ccc(OC(C)C)c(Cl)c1 |  |  | 97.7 | 105
5 | CNC(=O)[C@H](Cc1ccc(/N=N/c2c(C)nn(-c3ccccn3)c2C)cc1)NC(=O)c1ccc(OC(C)C)c(Cl)c1 |  | 10 | 162 | 93.3
6 | CNC(=O)[C@H](Cc1ccc(/N=N/c2c(C)nn(C3=NCCN3)c2C)cc1)NC(=O)c1ccc(OC(C)C)c(Cl)c1 |  | > 10 | 417 | 240
7 | CNC(=O)[C@H](Cc1ccc(/N=N/c2c(C)nn(-c3ccc(F)cc3F)c2C)cc1)NC(=O)c1ccc(OC(C)C)c(Cl)c1 |  | 10 | > 501 | 339
8 | CNC(=O)[C@H](Cc1ccc(/N=N/c2c(C)nn(Cc3ccccc3)c2C)cc1)NC(=O)c1ccc(OC(C)C)c(Cl)c1 |  | > 10 | > 501 | 204

Further lines, results first:

Row | inhibition [1] | IC50 (HeLa) [µM] | IC50 [2] [nM] | IC50 [3] [nM] | SMILES
9 |  | 0.38 | 166 | 20 | CNC(=O)[C@H](Cc1ccc(/N=N/c2c(C)noc2C)cc1)NC(=O)c1ccc(OC(C)C)c(Cl)c1
10 |  | > 10 | > 501 | 380 | CNC(=O)[C@H](Cc1ccc(/N=N/c2c(C)nn(C(=O)OC)c2C)cc1)NC(=O)c1ccc(OC(C)C)c(Cl)c1
11 |  | 0.2 | 195 | 12 | CNC(=O)[C@H](Cc1ccc(/N=N/c2c(C)nn(CCO)c2C)cc1)NC(=O)c1ccc(OC(C)C)c(Cl)c1
12 |  | 0.55 | 120 | 123 | CNC(=O)[C@H](Cc1ccc(/N=N/c2c(C)nn(C=O)c2C)cc1)NC(=O)c1ccc(OC(C)C)c(Cl)c1
13 |  | > 10 | 129 | 204 | CNC(=O)[C@H](Cc1ccc(/N=N/c2c(C)nn(C(=O)c3ccccc3)c2C)cc1)NC(=O)c1ccc(OC(C)C)c(Cl)c1
14 |  | 10 | 51.3 | 145 | CNC(=O)[C@H](Cc1ccc(/N=N/c2c(C)nn(C(N)=S)c2C)cc1)NC(=O)c1ccc(OC(C)C)c(Cl)c1
15 |  | > 10 | 245 | 209 | CNC(=O)[C@H](Cc1ccc(/N=N/c2c(C)nn(C(C)=O)c2C)cc1)NC(=O)c1ccc(OC(C)C)c(Cl)c1
16 |  | > 10 | 158 | 123 | CNC(=O)[C@H](Cc1ccc(/N=N/c2c(C)nn(C(C)C)c2C)cc1)NC(=O)c1ccc(OC(C)C)c(Cl)c1
17 |  | 0.447 | 83.2 | 33.9 | CCCC(=O)n1nc(C)c(/N=N/c2ccc(C[C@H](NC(=O)c3ccc(OC(C)C)c(Cl)c3)C(=O)NC)cc2)c1C
18 |  | 10 | 151 | 245 | CNC(=O)[C@H](Cc1ccc(/N=N/c2c(C)nn(C(=N)N)c2C)cc1)NC(=O)c1ccc(OC(C)C)c(Cl)c1
19 |  | 0.191 | 372 | 15.8 | CNC(=O)[C@H](Cc1ccc(/N=N/c2c(C)nn(C)c2C)cc1)NC(=O)c1ccc(OC(C)C)c(Cl)c1
20 |  | 0.457 | 129 | 15.1 | CNC(=O)[C@H](Cc1ccc(/N=N/c2c(C)nn(C(N)=O)c2C)cc1)NC(=O)c1ccc(OC(C)C)c(Cl)c1

Reference: ChEMBL document CHEMBL6127013, “A chemical platform for the efficient screening of arylazopyrazole-based photoswitchable CENP-E inhibitors using mild cyclization reactions” (Bioorg Med Chem Lett, 2024)
